Measurements from patent US20200339691A1, “PROTEINACEOUS MOLECULES AND USES THEREFOR” (priority 2018, published 2020).
“Also recorded” adds a separate entry of the source. Where a SMILES comes first, the peptide text is derived from it. The star is where a group is joined. Myristoyl = CCCCCCCCCCCCCC(=O)*

How the values were obtained:
[1] = tested on: CD44^hiCD24^lo CSCs in MDA-MB-231 cells; assay: FACS analysis of CD44^hiCD24^lo cancer stem cells in MDA-MB-231 cells treated with P1 analogues; assay type: cell-based, human; conditions: 50 μM peptide, 48 hours; for CD44^hiCD24^lo CSCs (%) / COI, Live Single CD44^hiCD24^lo CSCs (Cell Count): n = 1; for Average Inhibition of CSCs (%) / CD44^hiCD24^lo CSCs (%) Repeat 1 / CD44^hiCD24^lo CSCs (%) Repeat 2 / CD44^hiCD24^lo CSCs (%) Repeat 3: n = 3
Experimental: Analogues of P1 (Table 6) were designed and synthesized in accordance with the procedure of Example 5. The ability of these analogues to inhibit cancer stem cells was determined using FACS analysis on MDA-MB-231 cells, which constitutively contain approximately 90% CD44^hiCD24^lo cancer stem cells, treated with the peptides.
Non-adherent cells were removed during the washing steps.

EHTM2 = assay: Immunofluorescence of EHTM2 in MDA-MB-231 cells; assay type: cell-based, human; conditions: 50 μM, 72 hours
Experimental: (§1) Cells were treated with 50 μM P1, P2, P3 or P4 (synthesized in accordance with Example 5) or vehicle (water) for 72 hours. […] Confocal laser scanning microscopy was used to measure the […] and TCFI as described above. At least 20 individual cells were analyzed per sample.

EGFR = assay: Immunofluorescence of EGFR in MDA-MB-231 cells; assay type: cell-based, human; conditions: 50 μM, 72 hours
Experimental: (§2) 1×10^4 MDA-MB-231 cells were seeded onto coverslips in 12 well plates with DMEM media. Cells were treated with 50 μM P1, P2, P3 or P4 (synthesized in accordance with Example 5) or vehicle (water) for 72 hours. Cells were fixed with 3.7% formaldehyde and permeabilized with 2% Triton-X-100, then probed with primary mouse antibodies to CSV, DMNT1, H3K9me3 or 5-methylcytosine; primary goat antibodies to SNAI1, SETDB1 or ABCB5; or primary rabbit antibodies to PD-L1, EGFR, EHMT2; followed by the corresponding secondary antibody conjugated to anti-mouse Alexa-Fluor 568, anti-goat Alexa-Fluor 633 or anti-rabbit Alexa-Fluor 488. Confocal laser scanning microscopy was used to measure the TFI, TNFI and TCFI as described above. At least 20 individual cells were analyzed per sample.

MDA-MB-231 cells [2] = assay: FACS analysis of the cancer stem cell phenotype (CD44^high/CD24^low) in response to P1, P2 and P3; assay type: cell-based, human; conditions: 6.25-400 μM, 72 hours
Experimental: 5×10^4 MDA-MB-231 cells were seeded with 1 mL of complete DMEM in 12 well plates overnight. […] Samples were harvested by trypsinization followed by washing with DPBS containing 2% HI-FBS. FACS staining was performed using anti-human CD44-APC, anti-human CD24-PE, Hoechst and anti-human EpCAM antibody cocktails. Data was collected from a BD-FACSLSR-II flow cytometer. Treestar FlowJo was used for data analysis.

[3] = tested on: cell surface vimentin (CSV); assay: Immunofluorescence of CSV in MDA-MB-231 cells, Example 9; assay type: cell-based, human; conditions: 50 μM, 72 hours
Experimental: as §2

PD-L2 = assay: Immunofluorescence of PD-L2 in MDA-MB-231 cells; assay type: cell-based, human; conditions: 50 μM, 72 hours, relative to the control
Experimental: 1×10^4 MDA-MB-231 cells were treated with 50 μM P1, P2, P3 (synthesized in accordance with Example 5) or vehicle (water) for 72 hours. Cells were fixed with 3.7% formaldehyde and permeabilized with 2% Triton-X-100, then probed with a primary rabbit antibody to PD-L2, primary goat antibody to PD-L1 and primary mouse antibody to CSV, followed by the corresponding secondary antibody conjugated to anti-mouse Alexa-Fluor 568, anti-goat Alexa-Fluor 633 or anti-rabbit Alexa-Fluor 488. Confocal laser scanning microscopy was used to measure the TNFI and TCFI as described above. At least 20 individual cells were analyzed per sample.

induced MCF7 cells = assay: FACS CSC inhibition in induced MCF7 cells; assay type: cell-based, human; conditions: induced MCF7 cells (PMA/TGF-β), 50 μM peptide, 48 hours
Method in brief: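 FACS of adherent cells stained with anti-CD44, anti-CD24 and Hoechst 33342 gave the percentage of CD44hiCD24lo cells among Hoechst-negative live events, plus viability as live over single-cell events.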

MDA-MB-231 cells [4] = conditions: 72 h
Experimental: The effect of P1, P2 and P3 (synthesized in accordance with Example 5) on MDA-MB-231 cell proliferation was assessed using a WST-1 proliferation assay.
MCF7 cells were transfected with a plasmid containing the wild-type PD-L1 sequence, a plasmid containing a PD-L1 [K263Q] mutant (Mut1) or vector only (VO) using the NEON electroporation transfection system (Life Technologies). Transfected cells were used for the colorimetric based WTS-1 proliferation assay (Sigma-Aldrich) to examine the effect of transfection on MCF7 cell proliferation. The WTS-1 proliferation assay was also used to determine the effect of treatment with P1, P2 and P3 (synthesized in accordance with Example 5) on MDA-MB-231 cell proliferation. The stable tetrazolium salt WST-1 is cleaved to a soluble formazan by a complex cellular mechanism that occurs primarily at the cell surface. This bioreduction is largely dependent on the glycolytic production of NAD(P)H in viable cells. Therefore, the amount of formazan dye formed directly correlates to the number of metabolically active cells in the culture. Cells grown in a 96-well tissue culture plate were treated with vehicle only or 6.25, 12.5, 25, 50, 100, 200 or 400 μM of P1, P2 or P3 for 72 hours at 37° C. in a humidified CO2 incubator. Cells were then incubated with the WST-1 reagent for 0.5-4 hours. Following incubation, the formazan dye formed is quantitated with a scanning multi-well spectrophotometer (ELISA reader). The measured absorbance directly correlates to the number of viable cells.

SETDB1 = assay: Immunofluorescence of SETDB1 in MDA-MB-231 cells; assay type: cell-based, human; conditions: 50 μM, 72 hours
Experimental: as §1

ABCBS = assay: Immunofluorescence of ABCBS in MDA-MB-231 cells; assay type: cell-based, human; conditions: 50 μM, 72 hours
Experimental: as §2

H3K9me3 = assay: Immunofluorescence of H3K9me3 in MDA-MB-231 cells; assay type: cell-based, human; conditions: 50 μM, 72 hours
Experimental: as §2

5-methylcytosine = assay: Immunofluorescence of 5-methylcytosine in MDA-MB-231 cells; assay type: cell-based, human; conditions: 50 μM, 72 hours
Experimental: as §2

SMILES	Inhibition of CSCs (%) Repeat 1 [1] [%]	Inhibition of CSCs (%) Repeat 2 [1] [%]	Inhibition of CSCs (%) Repeat 3 [1] [%]	CD44^hiCD24^lo CSCs (%) [1] [%]	COI, Live Single CD44^hiCD24^lo CSCs (Cell Count) [1]	Average Inhibition of CSCs (%) [1] [%]	CD44^hiCD24^lo CSCs (%) Repeat 1 [1] [%]	CD44^hiCD24^lo CSCs (%) Repeat 2 [1] [%]	CD44^hiCD24^lo CSCs (%) Repeat 3 [1] [%]	expression / localization of EHTM2 (EHTM2)	expression of EGFR (EGFR)	cancer stem cell phenotype (CD44^high/CD24^low) (MDA-MB-231 cells [2])	expression of CSV [3]	PD-L2 nuclear localization (PD-L2)	CSC inhibition (%) (induced MCF7 cells)	IC50 (MDA-MB-231 cells [4]) [µM]	expression / nuclear localization of SETDB1 (SETDB1)	expression of ABCBS (ABCBS)	expression of H3K9me3 (H3K9me3)	expression of 5-methylcytosine (5-methylcytosine)
CCCCCCCCCCCCCC(=O)N[C@@H](CC(C)C)C(=O)N[C@H](C(=O)N[C@@H](Cc1ccccc1)C(=O)N[C@H](C(=O)N[C@@H](Cc1ccccc1)C(=O)N[C@@H](CCCNC(=N)N)C(=O)N[C@@H](CC(C)C)C(=O)N[C@@H](CCCNC(=N)N)C(=O)N[C@@H](CCCCN)C(=O)NCC(=O)N[C@@H](CCCNC(=N)N)C(=O)N[C@@H](CCSC)C(=O)N[C@@H](CCSC)C(=O)N[C@@H](CC(=O)O)C(=O)N[C@H](C(=O)N[C@@H](CCCCN)C(=O)N[C@@H](CCCCN)C(N)=O)C(C)C)[C@@H](C)CC)[C@@H](C)O [Peptide P1, Myristoyl-LTFIFRLRKGRMMDVKK-NH2] (Myristoyl-LTFIFRLRKGRMMDVKK-NH2)	93.33	89.97	90.28	15.77	220	91.19	5.98	9.00	8.72	significantly abrogated	uniformly inhibited	significantly inhibited	uniformly inhibited	significantly inhibited	38.10	103	significantly abrogated	–	–	–
CCCCCCCCCCCCCC(=O)N[C@@H](CC(C)C)C(=O)N[C@H](C(=O)N[C@@H](Cc1ccccc1)C(=O)N[C@H](C(=O)N[C@@H](Cc1ccccc1)C(=O)N[C@@H](CCCNC(=N)N)C(=O)N[C@@H](CC(C)C)C(=O)N[C@@H](CCCNC(=N)N)C(=O)N[C@@H](CCC(N)=O)C(=O)NCC(=O)N[C@@H](CCCNC(=N)N)C(=O)N[C@@H](CCSC)C(=O)N[C@@H](CCSC)C(=O)N[C@@H](CC(=O)O)C(=O)N[C@H](C(=O)N[C@@H](CCCCN)C(=O)N[C@@H](CCCCN)C(N)=O)C(C)C)[C@@H](C)CC)[C@@H](C)O [Peptide P2, Myristoyl-LTFIFRLRQGRMMDVKK-NH2] (Myristoyl-LTFIFRLRQGRMMDVKK-NH2)	79.10	82.65	85.94	13.99	616	82.56	18.73	15.56	12.62	significantly abrogated	uniformly inhibited	significantly inhibited	uniformly inhibited	significantly inhibited	59.93	564	significantly abrogated	–	–	–
CCCCCCCCCCCCCC(=O)N[C@@H](CC(C)C)C(=O)N[C@H](C(=O)N[C@@H](Cc1ccccc1)C(=O)N[C@H](C(=O)N[C@@H](Cc1ccccc1)C(=O)N[C@@H](CCCNC(=N)N)C(=O)N[C@@H](CC(C)C)C(=O)N[C@@H](CCCNC(=N)N)C(=O)N[C@@H](CCCCNC(C)=O)C(=O)NCC(=O)N[C@@H](CCCNC(=N)N)C(=O)N[C@@H](CCSC)C(=O)N[C@@H](CCSC)C(=O)N[C@@H](CC(=O)O)C(=O)N[C@H](C(=O)N[C@@H](CCCCN)C(=O)N[C@@H](CCCCN)C(N)=O)C(C)C)[C@@H](C)CC)[C@@H](C)O [Peptide P3, Myristoyl-LTFIFRLRK(Ac)GRMMDVKK-NH2] (Myristoyl-LTFIFRLRK(Ac)GRMMDVKK-NH2)	92.77	91.10	87.85	8.04	410	90.57	6.48	7.99	10.90	significantly abrogated	uniformly inhibited	significantly inhibited; also recorded: greatest inhibition	uniformly inhibited	significantly inhibited	53.67	542	significantly abrogated	strongly inhibited	strongly inhibited	strongly inhibited
